Here are results for one substance from US20070274947A1, “Antisense Oligonucleotides Directed to Ribonucleotide Reductase R1 and Uses Thereof in the Treatment of Cancer” (priority 2003, published 2007).

“Also recorded” adds a separate entry of the source.

For series [1] the following is noted: rat. As for the experimental part: Ten rats/sex/group were administered SEQ ID NO:1 at doses of 0 (control), 2, 10, or 50 mg/kg/day. Animals in the control group received the vehicle article, PBS. […] An additional 5 rats/group were included in the control and high dose group as recovery animals, and were allowed a 14-day observation period following the treatment period. Parameters assessed during the study include mortality, clinical signs, body weights, food consumption, opthalmoscopic examination, clinical pathology assessment (hematology, coagulation, clinical chemistry, and urinalysis). Terminal procedures included a complete necropsy of each animal, and histopathologic evaluation of selected tissues for animals in the control and high dose groups. For toxicokinetic evaluations, an additional 8 rats/sex were included in the high dose groups. Serial and terminal blood samples were withdrawn from satellite animals at selected time points during infusion and after the end of infusion.

In another series the test system is R1 protein. Put plainly: Immunoprecipitation of newly synthesized R1 protein in AsPC-1 cells. The class given is cell-based, human. The following applies: 0.2 μM, 4 hours. As for the experimental part:
Immunoprecipitation was performed using a saturating amount of AD203 anti-R1 monoclonal antibody as previously described (Choy et al., 1988). Human tumor cells, AsPC-1 (pancreatic adenocarcinoma), were exposed for 4 hours to SEQ ID NO:1, SEQ ID NO:1 M is (a SEQ ID NO:1 sequence containing four base mismatch) or SEQ ID NO:1 Scr (a sequence with the same ratio of ACTG as the SEQ ID NO:1 sequence but scrambled). Cells were then washed and labeled with ^35S-methionine for 4-7 hours. R1 protein was specifically immunoprecipitated with R1 antibody from cell lysate, resolved on sodium dodecyl sulfate-polyacrylamide gels and analyzed by autoradiography.

Series [2] relates to 28S rRNA, 18S rRNA, thioredoxin mRNA, β-actin mRNA, GAPDH mRNA, thioredoxin reductase mRNA, ribosomal protein S9 mRNA, RNase MRP RNA, RNase P RNA and R2 mRNA. Nature of the series: Northern blot of other cellular RNAs in A2058 human melanoma cells (specificity). Format: cell-based. The following applies: 0.2 μM, 4 hr with Lipofectin. As for the experimental part:
A2058 human melanoma cells, grown to subconfluency (70-80%), were treated with 0.2 μM of phosphorothioate antisense ODNs for 4 hr in the presence of cationic lipid (Lipofectin reagent, final concentration, 5 μg/ml, GIBCO BRL) and Opti-MEM (GIBCO BRL). Cells were washed once with PBS and incubated for 16 hr in α-MEM medium (GIBCO BRL) containing 10% FBS. Total RNA was prepared in TRIzol reagent (GIBCO BRL) and northern blot analysis was performed as previously described (Hurta and Wright, J. Cell. Biochem. 57: 543-56, 1995) with some modifications. RNA prepared from cells treated with lipofectin alone (Control), SEQ ID NO:1 and scrambled control analogue (SEQ ID NO:1 Scr) were subjected to electrophoresis through 1% formaldehyde agarose gels followed by transfer to nylon membrane. The blots were hybridized with ^32P-labeled probes that detect R1 mRNA, 28S rRNA, 18S rRNA, thioredoxin mRNA, […], GAPDH mRNA, thioredoxin reductase mRNA, ribosomal protein S9 mRNA, RNase MRP RNA, RNase P RNA and R2 mRNA.

For series [3], the system named is MDA-MB435-To.1 human Taxol-resistant breast adenocarcinoma cells. Put plainly: Taxol-resistant breast adenocarcinoma MDA-MB435-To.1 growth in SCID mice. Format: in vivo. As to the method: MDA-MB435-To.1 human Taxol-resistant breast adenocarcinoma cells (4×10^6 cells in 100 μl of PBS) were injected into the fat pad (inside of right leg) of 6-7 weeks old female SCD mice. After the size of tumor reached an approximate volume of 100 mm^3, 20 days post tumor cell injection, SEQ ID NO:1 was administered by bolus infusion into the tail vein every other day at 10 mg/kg 15 times. Control animals received saline alone for the same period. Antitumor effect of SEQ ID NO:1 was further compared to that of Cisplatin or Taxol alone (FIG. 15A). Cisplatin was administered intravenously once a week for four weeks at a dose of 4 mg/kg. Taxol was administered intravenously once a week for four weeks at a dose of 20 mg/kg. Antitumor activities were estimated by the inhibition of tumor volume, which was measured with caliper (FIG. 15B). Each point represents mean tumor volume calculated from 9-10 animals per experimental group. […] As expected, treatment with Taxol during the same period was ineffective against Taxol-resistant tumor.
MDA-MB435-To.1 human Taxol-resistant breast adenocarcinoma cells (4×10^6 cells in 100 μl of PBS) were injected into the fat pad (inside of right leg) of 6-7 weeks old female CB-17 SCID mice. After the size of tumor reached an approximate volume of 100 mm^3, 17 days post tumor cell injection, SEQ ID NO:1 was administered by bolus infusion into the tail vein every other day at 10 mg/kg. Control animals received saline alone for the same period. Antitumor effect of SEQ ID NO:1 was compared to that of Cisplatin alone and in combination. Cisplatin was administered intravenously once a week for four weeks at a dose of 4 mg/kg. Antitumor activities were estimated by the inhibition of tumor volume, which was measured with caliper (FIG. 15B). Each point represents mean tumor volume calculated from 10 animals per experimental group. At the end of the study the animals were sacrificed and tumors weighed (FIG. 15C).

The test system of series [4] is human Burkitt's lymphoma (Raji) cells. Nature of the series: Survival of SCID mice bearing human Burkitt's lymphoma (Raji). Format: in vivo. As to the method: In vivo studies were conducted to assess the therapeutic potential of SEQ ID NO:1 in the treatment of lymphoma. Viable human Burkitt's lymphoma (Raji) cells (5×10^6) collected from subconfluent logarithmically growing cultures were injected i.v. via the tail vein of each animal and disease was allowed to establish for 2 days. SEQ ID NO:1 in normal saline was administered by tail vein injections every second day at a dose of 10 mg/kg. Control animals received saline alone, without oligonucleotide. Treatment with SEQ ID NO:1 was stopped at day 42. The mice in both groups (n−10) were sacrificed at, day 73. Antitumor effects of SEQ ID NO:1 treatment were assessed by the examination of survival of mice (FIG. 18A). All mice died as a consequence of tumor progression within 23 days when left untreated. All SEQ ID NO:1 treated animals, on the other hand, survived beyond day 73 except one mouse which died at day 35. In an independent experiment, mice survived 140 days, even when treatment was stopped at day 70 (FIG. 18B). This experiment also included treatment with a control oligonucleotide, SEQ ID NO:1-SCR (scrambled version of SEQ ID NO:1). The saline and control ODN mice all died from disease progression by day 27. At day 40, the SEQ ID NO:1-treated mice continued treatment every three days until stopping the treatment at day 59. All mice survived to the end of the experimental period.

The conditions of series [5]: cynomolgus monkey, in vivo.

On to “5′-CTCTAGCGTCTTAAAGCCGA-3′ (CTCTAGCGTCTTAAAGCCGA; chemistry not given here) [SEQ ID NO:1]”, for which the “sex difference in plasma concentrations during infusion” value in series [1] is “no apparent differences in the levels between males and females”. Further, in series [1] (in vivo), the “mean Cmax” value came out at 40.4 µg/mL. Also, the “median time at which Cmax occurred” value in series [1] (in vivo) was determined as 96 h. The “time to steady state of continuous infusion” value in series [1] (50 (40) mg/kg/day continuous infusion) is given as “approximately 24 h”. In series [1] (after 14-day continuous infusion, high dose), the “elimination t1/2” value is recorded as 8.6 h. Also, the “steady state level (Css) in plasma” value in series [1] (continuous i.v. infusion 50 mg/kg/day (reduced to 40 mg/kg/day), 14 days) came out at 34.8 µg/mL. Moreover, in the series with R1 protein, the “R1 protein expression (synthesis)” value is reported as “specifically decreases R1 protein expression; also recorded: dramatically decreased; also recorded: specifically inhibit the expression of R1 protein”. For the same substance, the “expression of other cellular RNAs” value in series [2] is “significant decrease in R1 mRNA but not other RNAs; also recorded: No effects were observed”. In addition, the “delay in tumor growth compared with Cisplatin” value in series [3] (first experiment, Cisplatin 4 mg/kg weekly as positive control) is given as “superior to the inhibitory effects observed with Cisplatin”; in series [3] (second experiment, CB-17 SCID mice), “superior to the inhibitory effects observed with Cisplatin”. Besides, the “tumor weight / tumor growth” value in series [3] (first experiment, start 20 days post injection, SEQ ID NO:1 10 mg/kg 15 times, Cisplatin 4 mg/kg, Taxol 20 mg/kg weekly for four weeks) was “significant reduction of tumor weight”; in series [3] (second experiment, CB-17 SCID mice, start 17 days post injection, SEQ ID NO:1 10 mg/kg every other day, Cisplatin 4 mg/kg weekly), “significant reduction of tumor weight”. Besides, the survival of mice was greater than 73 days in series [4] (FIG. 18A, 10 mg/kg i.v. every second day, stopped at day 42, one mouse died at day 35, untreated died within 23 days) and no less than 140 days in series [4] (independent experiment FIG. 18B, saline mice died by day 27). Also, the “clinical parameters in mid and low dose animals” value in series [5] was “Transient changes”. In addition, the “complement split product Bb” value in series [5] is “appeared to increase”. Also, the “activated partial thromboplastin time (APTT)” value in series [5] (40 mg/kg/day) is recorded as “reversible increase”.
